Experimental data taken from US20200172913A1, “PEPTIDES AND NANOPARTICLES FOR INTRACELLULAR DELIVERY OF VIRUS” (priority 2017, published 2020).
Like-named read-outs stand apart in the source and are kept apart here. *1 amine or outer side, *2 acyl side, *3 side chain or, on linkers, in order; H or OH if unused. Where a SMILES comes first, the peptide text is derived from it. Where no end group is shown, it is not given here. Cysteamide = C(CS[*:3])N[*:1]

Experiments:
HUVEC cell lines = test: Cytotoxicity of AAV-CPP complexes, XTT assay; assay type: cell-based; conditions: CPP concentration of 500 μM, AAV-6-βGal MOI of 300, XTT after 2 days
Description: The cytoxicity of the AAV-CPP complexes was evaluated on HUVEC cell lines. AAV encoding beta galactosidase (AAV-6-βGal) at MOI of 300 were preincubated in PBS with increasing concentration of CPPs ranging from 1 to 500 μM for 30 min. Cells were treated with either free AAV (No CPP) or CPP/AAV complexes for 4 h, then the medium was replaced with fresh medium. Cytotoxicity of AAV-CPP complexes was determined using the XTT assay after 2 days. […] A low cytotoxicity of 5% for PEP-1 and PEP-2 and 8% for Pant were obtained for a CPP concentration of 500 μM.

HepG2 cells [1] = conditions: AAV-2, HepG2, Liu et al., cited from earlier work
HCN2 cells [2] = test: AAV-2-GFP transduction with CPPs, flow cytometry; assay type: cell-based, human; conditions: 200 μM CPP; for cells expressing GFP: AAV-2 MOI of 500, HCN2, 4% in the absence of CPP
Description: (§1) In this example different AAV serotypes including AAV 1, AAV2, AAV5, AAV6, AAV8 and AAV9 were tested against human hepatocytes (HepG2) and human neuronal cells (HCN2) in the presence or in the absence of CPPs including ADGN-103a, ADGN-103b, ADGN-100, ADGN-109, ADGN-106, PEP-1, PEP-2, CADY, and TAT-HA2.
(§2) AAV-1, AAV-2, AAV-5, and AAV-6 viruses encoding green fluorescent protein were obtained from Cell Biolabs Inc and AAV-8 from Vector Biolabs. Stock solutions of virus were obtained at 1χ10^13 GC/ml in PBS/0.01% and diluted 50-fold to 2×10^11 GC/ml before use.
(§3) AAV-1, AAV-2, AAV-5, and AAV6 encoding green fluorescent protein were used at low MOI of 500 (1-2×10^7 PFU) and AAV-8 at MOI of 1000 (2-4×10^7 PFU). HepG2 and HCN2 cells (1 10^6 cells per well) were cultured in a 24 well plate culture dish format. For MOI of 1000, 5 μl of AAV virus diluted solutions were preincubated in PBS with increasing concentration of CPPs ranging from 0.1 to 200 μM for 30 min. For MOI of 500, 2.5 μl of AAV virus diluted solutions were preincubated in PBS with increasing concentration of CPPs ranging from 0.1 to 200 μM for 30 min. 200 μl of AAV or CPP/AAV complex solutions were added to cultured cells (1×10^6 cells per well). Cells are treated with either free AAV or CPP/AAV complexes for 4 h. and then the medium is replaced with fresh medium.
(§4) Viral mediated transgene expression was monitored by flow cytomety 2 days post-infection in HepG2 and Human neuronal HCN2. The percentage of GFP expressing cells were detected by flow cytometry and the increase of AAV infectivity was calculated based on the number of GFP-positive cells. Results are reported in FIGS. 5A-5D, 6A-6D, 7A-7D, 8A-8D, and 9A-9D.

HepG2 cells [3] = test: AAV-2-GFP transduction with CPPs, flow cytometry; assay type: cell-based, human; conditions: 200 μM CPP; for cells expressing GFP: AAV-2 MOI of 500, HepG2, 4% in the absence of CPP
Description: as §1, §2, §3, §4

HepG2 cells [4] = test: AAV-2 transfection of HepG2 cells with TAT-HA2 or LAH4 peptides (Liu et al., Molecular Therapy, 2014); assay type: cell-based, human; conditions: 200 μM, GFP-positive cells
HCN2 cells [5] = test: AAV-8-GFP transduction with CPPs, flow cytometry; assay type: cell-based, human; conditions: 200 μM CPP, AAV-8 MOI of 1000, HCN2; 5% in the absence of CPP
Description: as §1, §2, §3, §4

HepG2 cells [6] = test: AAV-8-GFP transduction with CPPs, flow cytometry; assay type: cell-based, human; conditions: 200 μM CPP, AAV-8 MOI of 1000, HepG2; 5% in the absence of CPP
Description: as §1, §2, §3, §4

HCN2 cells [7] = test: AAV-6-GFP transduction with CPPs, flow cytometry; assay type: cell-based, human; conditions: for increase of AAV-6 efficiency: 200 μM CPP, MOI of 500, HCN2; for cells expressing GFP: 200 μM of CPP, AAV-6 MOI of 500, HCN2, 4% in the absence of CPP
Description: as §1, §2, §3, §4

HepG2 cells [8] = test: AAV-6-GFP transduction with CPPs, flow cytometry; assay type: cell-based, human; conditions: 200 μM CPP; for cells expressing GFP: AAV-6 MOI of 500, HepG2, 5% in the absence of CPP; for increase of AAV-6 efficiency: MOI of 500, HepG2
Description: as §1, §2, §3, §4

HCN2 cells [9] = test: AAV-1-GFP transduction with CPPs, flow cytometry; assay type: cell-based, human; conditions: 200 μM CPP; for cells expressing GFP: AAV-1 MOI of 500, HCN2, 5% in the absence of CPP
Description: as §1, §2, §3, §4

HepG2 cells [10] = test: AAV-1-GFP transduction with CPPs, flow cytometry; assay type: cell-based, human; conditions: 200 μM CPP, AAV-1 MOI of 500, HepG2; 5% in the absence of CPP
Description: as §1, §2, §3, §4

HCN2 cells [11] = test: AAV-5-GFP transduction with CPPs, flow cytometry; assay type: cell-based, human; conditions: 200 μM CPP; for cells expressing GFP: AAV-5 MOI of 500, HCN2, 5% in the absence of CPP
Description: as §1, §2, §3, §4

HepG2 cells [12] = test: AAV-5-GFP transduction with CPPs, flow cytometry; assay type: cell-based, human; conditions: 200 μM CPP; for cells expressing GFP: AAV-5 MOI of 500, HepG2, 5% in the absence of CPP
Description: as §1, §2, §3, §4

[13] = target: Adeno-associated virus AAV-2 encoding green fluorescent protein (adeno-associated virus serotype 2) (UniProt P03135); test: cell-based or functional assay
HepG2 and HCN2 cells [14] = test: AAV-8-GFP transduction with CPPs, statements for both cell lines; assay type: cell-based, human
Description: as §1, §2, §3, §4

HepG2 and HCN2 cells [15] = test: AAV-2-GFP transduction with CPPs, statements for both cell lines; assay type: cell-based, human
Description: as §1, §2, §3, §4

HepG2 and HCN2 cells [16] = test: AAV-5-GFP transduction with CPPs, statements for both cell lines; assay type: cell-based, human
Description: as §1, §2, §3, §4

HepG2 and HCN2 cells [17] = test: AAV-6-GFP transduction with CPPs, statements for both cell lines; assay type: cell-based, human
Description: as §1, §2, §3, §4

HepG2 and HCN2 cells [18] = test: AAV-1-GFP transduction with CPPs, statements for both cell lines; assay type: cell-based, human
Description: as §1, §2, §3, §4

[19] = target: Adeno-associated virus AAV-2 encoding green fluorescent protein (adeno-associated virus serotype 2) (UniProt P03135); test: cell-based or functional assay; remark: listed apart in the source
[20] = 200 μM concentration of peptide
[21] = 1 μM concentration, both cell lines

## CC(=O)N[C@@H](CCCCN)C(=O)N[C@@H](CCC(=O)O)C(=O)N[C@H](C(=O)N[C@@H](Cc1c[nH]c2ccccc12)C(=O)N[C@@H](Cc1c[nH]c2ccccc12)C(=O)N[C@@H](CCC(=O)O)C(=O)N[C@H](C(=O)N[C@@H](Cc1c[nH]c2ccccc12)C(=O)N[C@@H](Cc1c[nH]c2ccccc12)C(=O)N[C@H](C(=O)N[C@@H](CCC(=O)O)C(=O)N[C@@H](Cc1c[nH]c2ccccc12)C(=O)N[C@@H](CO)C(=O)N[C@@H](CCC(N)=O)C(=O)N1CCC[C@H]1C(=O)N[C@@H](CCCCN)C(=O)N[C@@H](CCCCN)C(=O)N[C@@H](CCCCN)C(=O)N[C@@H](CCCNC(=N)N)C(=O)N[C@@H](CCCCN)C(=O)N[C@H](C(=O)NCCS)C(C)C)[C@@H](C)O)[C@@H](C)O)[C@@H](C)O [PEP-1] (Ac-KETWWETWWTEWSQPKKKRKV-Cysteamide)
HUVEC cell lines
  cytotoxicity: 5%

## CRRRQRRKKRGGDIMGEWGNEIFGAIAGFLG [TAT-HA2, reference compound]
HepG2 cells [1]; [20]
  GFP-positive cells: about 25%
HepG2 cells [1]; concentration of CPPs
  GFP-positive cells: 12%
HCN2 cells [2]
  cells expressing GFP: 20%
HCN2 cells [2]; MOI of 500, HCN2
  increase of AAV-2 efficiency: 3 fold
HepG2 cells [3]
  cells expressing GFP: 23%
HepG2 cells [3]; MOI of 500, HepG2
  increase of AAV-2 efficiency: 5 fold
HepG2 cells [4]
  fold lower than the results obtained with the ADGN peptides: 4 fold
HCN2 cells [5]
  cells expressing GFP: 12%
HepG2 cells [6]
  cells expressing GFP: 15%
HCN2 cells [7]
  increase of AAV-6 efficiency: 3 fold
  cells expressing GFP: 22%
HepG2 cells [8]
  cells expressing GFP: 35%
  increase of AAV-6 efficiency: about 10 fold
HCN2 cells [9]
  cells expressing GFP: 22%
HCN2 cells [9]; MOI of 500, HCN2
  increase of AAV-1 efficiency: 3 fold
HepG2 cells [10]
  cells expressing GFP: 27%
HCN2 cells [11]
  cells expressing GFP: 10%
HCN2 cells [11]; MOI of 500, HCN2
  increase of AAV-5 efficiency: 2 fold
HepG2 cells [12]
  cells expressing GFP: 11%
HepG2 cells [12]; MOI of 500, HepG2
  increase of AAV-5 efficiency: 3 fold

## CC(=O)N[C@@H](CCCCN)C(=O)N[C@@H](CCC(=O)O)C(=O)N[C@H](C(=O)N[C@@H](Cc1c[nH]c2ccccc12)C(=O)N[C@@H](Cc1ccccc1)C(=O)N[C@@H](CCC(=O)O)C(=O)N[C@H](C(=O)N[C@@H](Cc1c[nH]c2ccccc12)C(=O)N[C@@H](Cc1ccccc1)C(=O)N[C@H](C(=O)N[C@@H](CCC(=O)O)C(=O)N[C@@H](Cc1c[nH]c2ccccc12)C(=O)N[C@@H](CO)C(=O)N[C@@H](CCC(N)=O)C(=O)N1CCC[C@H]1C(=O)N[C@@H](CCCCN)C(=O)N[C@@H](CCCCN)C(=O)N[C@@H](CCCCN)C(=O)N[C@@H](CCCNC(=N)N)C(=O)N[C@@H](CCCCN)C(=O)N[C@H](C(=O)NCCS)C(C)C)[C@@H](C)O)[C@@H](C)O)[C@@H](C)O [PEP-2] (Ac-KETWFETWFTEWSQPKKKRKV-Cysteamide)
HUVEC cell lines
  cytotoxicity: 5%

## KKALLALALHHLAHLALHLALALKKAC [LAH4, a leucine- and histidine-rich peptide]
HepG2 cells [1]; [20]
  GFP-positive cells: ~45%
HepG2 cells [1]; concentration of CPPs
  GFP-positive cells: 12%
HepG2 cells [4]
  fold lower than the results obtained with the ADGN peptides: 2 fold

## PEP-1-PEG (peptide)
[13]
  efficacy (GFP expressing 293 T cells) after incubation of the complexes in 50% serum: 30 % reduction

## PEP-1-DOPA (peptide)
[13]
  efficacy (GFP expressing 293 T cells) after incubation of the complexes in 50% serum: 30 % reduction

## βAKWWERWWREWPRKRR (not fully specified (residue 1, N-terminus); printed as βAKWWERWWREWPRKRR) [ADGN-103b]
HCN2 cells [2]
  cells expressing GFP: 81%
HepG2 cells [3]
  cells expressing GFP: 96%
HepG2 and HCN2 cells [14]; [21]
  impact on AAV-8 infectivity: significant impact
HepG2 and HCN2 cells [14]; 10 μM concentration, AAV-8, both cell lines
  share of the final improvement obtained at 200 μM: about 60%
HepG2 and HCN2 cells [15]; [21]
  impact on AAV-2 infectivity: significant impact
HepG2 and HCN2 cells [15]; 10 μM concentration of CPP, AAV-2, both cell lines
  share of the final improvement obtained with 200 μM: about 70%
HepG2 and HCN2 cells [16]; [21]
  impact on AAV-5 infectivity: significant impact
HepG2 and HCN2 cells [16]; 10 μM concentration, AAV-5, both cell lines
  share of the final improvement obtained at 200 μM: about 50%
HCN2 cells [5]
  cells expressing GFP: 58%
HepG2 cells [6]
  cells expressing GFP: 60%
HCN2 cells [7]
  increase of AAV-6 efficiency: 22 fold
  cells expressing GFP: 67%
HepG2 cells [8]
  cells expressing GFP: 98%
  increase of AAV-6 efficiency: 30 fold
HepG2 and HCN2 cells [17]; [21]
  impact on AAV-6 infectivity: significant impact
HepG2 and HCN2 cells [17]; 10 μM concentration, AAV-6, both cell lines
  share of the final improvement obtained at 200 μM: about 70%
HCN2 cells [9]
  cells expressing GFP: 78%
HepG2 cells [10]
  cells expressing GFP: 81%
HCN2 cells [11]
  cells expressing GFP: 48%
HepG2 cells [12]
  cells expressing GFP: 64%
HepG2 and HCN2 cells [18]; [21]
  impact on AAV-1 infectivity: significant impact
HepG2 and HCN2 cells [18]; 10 μM concentration of CPP, AAV-1, both cell lines
  share of the final improvement obtained with 200 μM: about 60%

## KETWWETWWTEWSQPKKKRKV (not fully specified (N-terminus, C-terminus)) [PEP-1 (N-acetylated, C-terminal cysteamide; Example 5)]
[19]
  level of GFP expressing cells (293 T cells, flow cytometry) after 1 h incubation of the complexes in 20% serum: 60 % reduction
  level of GFP expressing cells (293 T cells, flow cytometry) after 1 h incubation of the complexes in 50% serum: 80 % reduction
